Assay results reported in ChEMBL document CHEMBL3616440, “Non-basic azolotriazinone MCHR1 antagonists for the treatment of obesity: An empirical brain-exposures-driven candidate selection for in vivo efficacy studies” (Bioorg Med Chem Lett, 2015).

Columns and labels:
[1] = Ratio of free drug level in brain of Sprague-Dawley rat assessed as 6-(4-chlorophenyl)-3-(6-(4-hydroxypiperidin-1-yl)pyridin-3-yl)pyrrolo[1,2-f][1,2,4]triazin-4(3H)-one level at 30 mg/kg, po to Ki for rat MCHR1; format: ADME, organism-based; details: in vivo
Plasma [2] = test: Fraction unbound in Sprague-Dawley rat plasma assessed as 6-(4-chlorophenyl)-3-(6-(4-hydroxypiperidin-1-yl)pyridin-3-yl)pyrrolo[1,2-f][1,2,4]triazin-4(3H)-one level; format: ADME, cell-free
Brain [3] = test: Free drug level in Sprague-Dawley rat brain assessed as 6-(4-chlorophenyl)-3-(6-(4-hydroxypiperidin-1-yl)pyridin-3-yl)pyrrolo[1,2-f][1,2,4]triazin-4(3H)-one level at 10 mg/kg, po qd at 20 hrs; format: ADME, organism-based; details: in vivo
Brain [4] = test: Free drug level in Sprague-Dawley rat brain assessed as 6-(4-chlorophenyl)-3-(6-(4-hydroxypiperidin-1-yl)pyridin-3-yl)pyrrolo[1,2-f][1,2,4]triazin-4(3H)-one level at 30 mg/kg, po qd at 20 hrs; format: ADME, organism-based; details: in vivo
Brain [5] = test: Free drug level in Sprague-Dawley rat brain assessed as 6-(4-chlorophenyl)-3-(6-(4-hydroxypiperidin-1-yl)pyridin-3-yl)pyrrolo[1,2-f][1,2,4]triazin-4(3H)-one level at 3 mg/kg, po qd at 20 hrs; format: ADME, organism-based; details: in vivo
Brain [6] = test: Drug concentration in Sprague-Dawley rat brain assessed as 6-(4-chlorophenyl)-3-(6-(4-hydroxypiperidin-1-yl)pyridin-3-yl)pyrrolo[1,2-f][1,2,4]triazin-4(3H)-one level at 10 mg/kg, po qd at 20 hrs; format: ADME, organism-based; details: in vivo, read-out: Drug uptake
Rattus norvegicus [7] = test: Antiobesity activity in Sprague-Dawley rat assessed as body weight reduction at 30 mg/kg, po qd after 4 days relative to control; format: functional; details: 96 h
Brain [8] = test: Drug concentration in Sprague-Dawley rat brain assessed as 6-(4-chlorophenyl)-3-(6-(4-hydroxypiperidin-1-yl)pyridin-3-yl)pyrrolo[1,2-f][1,2,4]triazin-4(3H)-one level at 30 mg/kg, po qd at 20 hrs; format: ADME, organism-based; details: in vivo, read-out: Drug uptake
Rattus norvegicus [9] = test: Antiobesity activity in Sprague-Dawley rat assessed as body weight reduction at 3 mg/kg, po qd after 4 days relative to control; format: functional; details: 96 h
Brain [10] = test: Drug concentration in Sprague-Dawley rat brain assessed as 6-(4-chlorophenyl)-3-(6-(4-hydroxypiperidin-1-yl)pyridin-3-yl)pyrrolo[1,2-f][1,2,4]triazin-4(3H)-one level at 3 mg/kg, po qd at 20 hrs; format: ADME, organism-based; details: in vivo, read-out: Drug uptake
[11] = Ratio of free drug level in brain of Sprague-Dawley rat assessed as 6-(4-chlorophenyl)-3-(6-(4-hydroxypiperidin-1-yl)pyridin-3-yl)pyrrolo[1,2-f][1,2,4]triazin-4(3H)-one level at 10 mg/kg, po to Ki for rat MCHR1; format: ADME, organism-based; details: in vivo
[12] = Ratio of free drug level in brain of Sprague-Dawley rat assessed as 6-(4-chlorophenyl)-3-(6-(4-hydroxypiperidin-1-yl)pyridin-3-yl)pyrrolo[1,2-f][1,2,4]triazin-4(3H)-one level at 3 mg/kg, po to Ki for rat MCHR1; format: ADME, organism-based; details: in vivo
Rattus norvegicus [13] = test: Antiobesity activity in Sprague-Dawley rat assessed as body weight reduction at 10 mg/kg, po qd after 4 days relative to control; format: functional; details: 96 h
Brain [14] = test: Drug concentration in Sprague-Dawley rat brain assessed as 6-(4-chlorophenyl)-3-(4-(2-hydroxy-2-methylpropoxy)-3-methoxyphenyl)thieno[3,2-d]pyrimidin-4(3H)-one level at 10 mg/kg, po qd at 20 hrs; format: ADME, organism-based; details: in vivo, read-out: Drug uptake
[15] = molecular target: Melanin-concentrating hormone receptor 1 (Homo sapiens, UniProt Q99705); test: Antagonist activity at human MCHR1 expressed in HEK293 cells assessed as inhibition of MCH-induced Ca2+ influx for 120 mins by FLIPR assay; format: functional, cell-based
Chain of Melanin-concentrating hormone receptor 1 (Homo sapiens, UniProt Q99705) (Q99705 whole entry): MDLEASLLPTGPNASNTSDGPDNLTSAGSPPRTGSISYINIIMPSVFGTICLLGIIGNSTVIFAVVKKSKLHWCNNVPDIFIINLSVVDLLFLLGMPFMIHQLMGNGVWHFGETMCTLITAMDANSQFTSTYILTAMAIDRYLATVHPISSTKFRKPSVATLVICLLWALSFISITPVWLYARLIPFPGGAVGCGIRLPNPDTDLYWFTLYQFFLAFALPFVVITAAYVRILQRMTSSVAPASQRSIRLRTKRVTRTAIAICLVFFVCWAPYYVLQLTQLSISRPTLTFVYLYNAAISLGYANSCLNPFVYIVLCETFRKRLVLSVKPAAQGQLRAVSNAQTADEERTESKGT

Rattus norvegicus [16] = test: Toxicity in oral-dosed Sprague-Dawley rat assessed as biliary lesion after 30 days; format: organism-based; details: in vivo, 720 h
[17] = molecular target: Melanin-concentrating hormone receptor 1 (Rattus norvegicus, UniProt P97639); test: Displacement of [125I][Phe13,Tyr19]-MCH from rat MCHR1 by scintillation counting analysis
Chain of Melanin-concentrating hormone receptor 1 (Rattus norvegicus, UniProt P97639) (P97639 whole entry): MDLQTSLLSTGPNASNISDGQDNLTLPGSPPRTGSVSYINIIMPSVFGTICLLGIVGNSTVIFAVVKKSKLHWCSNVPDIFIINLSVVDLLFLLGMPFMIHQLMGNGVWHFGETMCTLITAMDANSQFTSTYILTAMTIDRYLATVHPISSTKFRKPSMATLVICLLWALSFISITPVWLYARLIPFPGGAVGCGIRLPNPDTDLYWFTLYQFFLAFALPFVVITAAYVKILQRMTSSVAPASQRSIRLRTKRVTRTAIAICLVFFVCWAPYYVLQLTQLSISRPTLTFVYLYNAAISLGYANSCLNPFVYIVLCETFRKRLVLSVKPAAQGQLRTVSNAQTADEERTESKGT

[18] = molecular target: Melanin-concentrating hormone receptor 1 (Rattus norvegicus) (UniProt P97639); details: 10 uM
Chain of Melanin-concentrating hormone receptor 1 (Rattus norvegicus) (P97639 whole entry): as above
Description: Displacement of [125I][Phe13,Tyr19]-MCH from rat MCHR1 at 10 uM by scintillation counting analysis

Plasma [19] = test: Fraction unbound in Sprague-Dawley rat plasma assessed as 6-(4-chlorophenyl)-3-(4-(2-hydroxy-2-methylpropoxy)-3-methoxyphenyl)thieno[3,2-d]pyrimidin-4(3H)-one level; format: ADME, cell-free
Rattus norvegicus [20] = test: Prodrug conversion in oral-dosed Sprague-Dawley rat assessed as 6-(4-chlorophenyl)-3-(4-(2,3-dihydroxy-2-methylpropoxy)-3-methoxyphenyl)thieno[3,2-d]pyrimidin-4(3H)-one formation; format: ADME, organism-based; details: in vivo
Brain [21] = test: Free drug level in Sprague-Dawley rat brain assessed as 6-(4-chlorophenyl)-3-(4-(2-hydroxy-2-methylpropoxy)-3-methoxyphenyl)thieno[3,2-d]pyrimidin-4(3H)-one level at 10 mg/kg, po qd at 20 hrs; format: ADME, organism-based; details: in vivo
[22] = Ratio of free drug level in brain of Sprague-Dawley rat assessed as 6-(4-chlorophenyl)-3-(4-(2-hydroxy-2-methylpropoxy)-3-methoxyphenyl)thieno[3,2-d]pyrimidin-4(3H)-one level at 10 mg/kg, po to Ki for rat MCHR1; format: ADME, organism-based; details: in vivo
Rattus norvegicus [23] = test: Prodrug conversion in oral-dosed Sprague-Dawley rat assessed as 3-(4-(6-(4-chlorophenyl)-4-oxothieno[3,2-d]pyrimidin-3(4H)-yl)-2-methoxyphenoxy)-2-hydroxy-2-methylpropanoic acid formation; format: ADME, organism-based; details: in vivo

Structure (SMILES): CC(C)[C@H](N)C(=O)OC1CCN(c2ccc(-n3cnn4cc(-c5ccc(Cl)cc5)cc4c3=O)cn2)CC1
- Ratio [1]: < 1.7
- Fu (Plasma [2]): < 0.2%
- Drug uptake(free) (Brain [3]): < 20 nM
- Drug uptake(free) (Brain [4]): < 30 nM
- Drug uptake(free) (Brain [5]): < 3.9 nM
- concentration (Brain [6]): 10.1 µM
- inhibition in vivo at 30 mg/kg (Rattus norvegicus [7]): 2.6%
- concentration (Brain [8]): 15.1 µM
- inhibition in vivo at 3 mg/kg (Rattus norvegicus [9]): 1.3%
- concentration (Brain [10]): 1.97 µM
- Ratio [11]: < 1.1
- Ratio [12]: < 0.2
- inhibition in vivo at 10 mg/kg (Rattus norvegicus [13]): 1.3%

Structure (SMILES): COc1cc(-n2cnc3cc(-c4ccc(Cl)cc4)sc3c2=O)ccc1OCC(C)(C)O
- concentration (Brain [14]): 1.61 µM
- IC50 [15]: 16 nM
- Activity (Rattus norvegicus [16]): Toxic
- Ki [17]: 7.2 nM
- inhibition [18]: > 90%

Structure (SMILES): COc1cc(-n2cnc3cc(-c4ccc(Cl)cc4)sc3c2=O)ccc1OCC(C)(C)OC(=O)CN
- Fu (Plasma [19]): 0.7%
- Drug metabolism (Rattus norvegicus [20]): metabolite_detected
- Drug uptake(free) (Brain [21]): 11.3 nM
- Ratio [22]: 1.6
- Drug metabolism (Rattus norvegicus [23]): metabolite_detected
- inhibition in vivo at 10 mg/kg (Rattus norvegicus [13]): 6.9%
